The test concerns the target human NAMPT (Homo sapiens (Human), UniProt P43490). As to the kind of experiment: NMN fluorescence biochemical assay (human recombinant NAMPT enzyme assay). In outline:
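NMN formed was detected by fluorescence (Ex/Em 355/460 nm) after acetophenone, KOH and formic acid derivatization. The cell-free reaction ran 60 min at ambient temperature with 6 nM human NAMPT, 150 μM nicotinamide, 20 μM PRPP, 2.5 mM ATP, pH 7.2 HEPES, and compound dose responses.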

SMILES strings stand for the structures.

32 compounds from patent US20240279215A1 (Cytokinetics, Incorporated, priority 2022, published 2024) can be followed below.

Sequence of human NAMPT (P43490 whole entry): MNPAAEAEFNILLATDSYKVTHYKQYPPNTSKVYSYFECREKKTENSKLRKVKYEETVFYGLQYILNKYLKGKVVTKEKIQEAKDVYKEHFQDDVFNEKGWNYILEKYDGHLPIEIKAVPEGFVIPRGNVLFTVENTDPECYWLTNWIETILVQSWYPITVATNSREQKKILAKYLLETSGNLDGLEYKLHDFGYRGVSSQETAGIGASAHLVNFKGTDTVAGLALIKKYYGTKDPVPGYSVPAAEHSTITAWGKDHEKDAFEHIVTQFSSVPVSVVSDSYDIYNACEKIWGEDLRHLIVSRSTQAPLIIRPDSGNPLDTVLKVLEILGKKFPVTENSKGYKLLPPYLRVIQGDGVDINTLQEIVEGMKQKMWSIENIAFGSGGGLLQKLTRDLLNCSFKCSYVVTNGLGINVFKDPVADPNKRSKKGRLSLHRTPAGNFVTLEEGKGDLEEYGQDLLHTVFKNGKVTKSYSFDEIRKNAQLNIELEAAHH

The EC50 is the concentration needed to bring the measured effect to its halfway point. As to `COC(=O)N1CCC(Cc2ccc(NC(=O)OCc3ccc(Cl)cc3)cc2)CC1` [Compound 98, methyl 4-(4-((((4-chlorobenzyl)oxy)carbonyl)amino)benzyl)piperidine-1-carboxylate], the “AC1.4 Human” value amounted to 0.78 µM and the EC50 was found to be 1.49 µM.

As to `O=C(Nc1ccc(Cc2ccncc2)cc1)OCc1cn[nH]c1` [Compound 99, (1H-pyrazol-4-yl)methyl (4-(pyridin-4-ylmethyl)phenyl)carbamate], the “AC1.4 Human” value was found to be 0.79 µM and the 50% effective concentration (EC50) worked out at 51.2 µM.

With `COc1ccc(C(=O)N[C@@H](C)c2ccc(NC(=O)OCc3ccc(Cl)cc3)cc2)cn1` [Compound 100, (4-chlorophenyl)methyl N-{4-[(1S)-1-[(6-methoxypyridin-3-yl)formamido]ethyl]phenyl}carbamate], the “AC1.4 Human” value amounted to 0.81 µM and the concentration giving a half-maximal response (EC50) was 1.22 µM.

Turning to `CCn1nccc1C(=O)N[C@@H](C)c1ccc(NC(=O)OCc2ccc(Cl)cc2)cc1` [Compound 101, (4-chlorophenyl)methyl N-{4-[(1S)-1-[(2-ethylpyrazol-3-yl)formamido]ethyl]phenyl}carbamate], the “AC1.4 Human” value was 0.82 µM and the EC50 was found to be 4.14 µM.

Take `O=C(Nc1ccc(CC2CCN(C(=O)C3CCC3)CC2)cc1)OCc1ccc(Cl)cc1` [Compound 102, 4-chlorobenzyl (4-((1-(cyclobutanecarbonyl)piperidin-4-yl)methyl)phenyl)carbamate]: the “AC1.4 Human” value was found to be 0.82 µM and the EC50 amounted to 1.89 µM.

Regarding `C[C@H](NC(=O)N1CCCC1)c1ccc(NC(=O)OCc2ccc(Cl)cc2)cc1` [Compound 103, 4-chlorobenzyl (S)-(4-(1-(pyrrolidine-1-carboxamido)ethyl)phenyl)carbamate], the “AC1.4 Human” value was 0.83 µM and the concentration giving a half-maximal response (EC50) was 4.31 µM.

`Cc1ccc(C(=O)N(C)Cc2ccc(NC(=O)OCc3ccc(Cl)cc3)cc2)cn1` [Compound 104, (4-chlorophenyl)methyl N-(4-{[N-methyl-1-(6-methylpyridin-3-yl)formamido]methyl}phenyl)carbamate]: the “AC1.4 Human” value came to 0.85 µM and the EC50 is 5.06 µM.

On to `C[C@H](NC(=O)c1ccncc1)c1ccc(NC(=O)OCc2ccc(Cl)cc2)cc1` [Compound 105, (4-chlorophenyl)methyl N-{4-[(1S)-1-(pyridin-4-ylformamido)ethyl]phenyl}carbamate], for which the “AC1.4 Human” value was found to be 0.85 µM and the concentration giving a half-maximal response (EC50) is 1.94 µM.

In the case of `O=C(Nc1ccc(Cc2ccncc2)cc1)OCc1ccc(CO)cc1` [Compound 106, 4-(hydroxymethyl)benzyl (4-(pyridin-4-ylmethyl)phenyl)carbamate], the “AC1.4 Human” value is 0.86 µM and the EC50 was determined as 26.4 µM.

For `CS(=O)(=O)N1CCN(Cc2ccc(NC(=O)OCc3ccc(Cl)cc3)cc2)CC1` [Compound 107, (4-chlorophenyl)methyl N-{4-[(4-methanesulfonylpiperazin-1-yl)methyl]phenyl}carbamate], the “AC1.4 Human” value is 0.89 µM and the half-maximal effective concentration (EC50) came to 10.8 µM.

Regarding `Cc1nocc1C(=O)N(C)Cc1ccc(NC(=O)OCc2ccc(Cl)cc2)cc1` [Compound 108, (4-chlorophenyl)methyl N-(4-{[N-methyl-1-(3-methyl-1,2-oxazol-4-yl)formamido]methyl}phenyl)carbamate], the “AC1.4 Human” value came out at 0.89 µM and the 50% effective concentration (EC50) was found to be 8.17 µM.

For the compound `Cc1ncc(C(=O)NCc2ccc(NC(=O)OCc3ccc(Cl)cc3)cc2)cn1` [Compound 109, (4-chlorophenyl)methyl N-(4-{[(2-methylpyrimidin-5-yl)formamido]methyl}phenyl)carbamate], the “AC1.4 Human” value is 0.90 µM and the EC50 amounted to 4.71 µM.

As for `COc1cc(C(=O)N[C@@H](C)c2ccc(NC(=O)OCc3ccc(Cl)cc3)cc2)cnc1C` [Compound 110, (4-chlorophenyl)methyl N-{4-[(1S)-1-[(5-methoxy-6-methylpyridin-3-yl)formamido]ethyl]phenyl}carbamate], the “AC1.4 Human” value was 0.91 µM and the 50% effective concentration (EC50) amounted to 3.46 µM.

Consider `O=C(Nc1ccc(CC(=O)N2CCCCC2)cc1)OCc1ccc(Cl)cc1` [Compound 111, (4-chlorophenyl)methyl N-{4-[2-oxo-2-(piperidin-1-yl)ethyl]phenyl}carbamate], for which the “AC1.4 Human” value stood at 0.91 µM and the EC50 came out at 5.33 µM.

In the case of `CN(Cc1ccc(NC(=O)OCc2ccc(Cl)cc2)cc1)C(=O)N1CCC1` [Compound 112, 4-chlorobenzyl (4-((N-methylazetidine-1-carboxamido)methyl)phenyl)carbamate], the “AC1.4 Human” value stood at 0.93 µM and the EC50 was 5.53 µM.

On to `O=C(Nc1ccc(C2CCN(CC(F)F)CC2)cc1)OCc1cnco1` [Compound 113, 1,3-oxazol-5-ylmethyl N-{4-[1-(2,2-difluoroethyl)piperidin-4-yl]phenyl}carbamate], for which the “AC1.4 Human” value was 0.94 µM and the EC50 was 51 µM.

As for `Cc1ccc(Cc2ccc(NC(=O)OCc3cncs3)cc2)cn1` [Compound 114, thiazol-5-ylmethyl (4-((6-methylpyridin-3-yl)methyl)phenyl)carbamate], the “AC1.4 Human” value worked out at 0.94 µM and the EC50 is 19.7 µM.

As for `CC(=O)N1CCC(Cc2ccc(NC(=O)OCc3ccncc3)cc2)CC1` [Compound 115, pyridin-4-ylmethyl (4-((1-acetylpiperidin-4-yl)methyl)phenyl)carbamate], the “AC1.4 Human” value came to 0.94 µM and the EC50 came to 3.13 µM.

Consider `CC1(O)CCN(C(=O)Cc2ccc(NC(=O)OCc3ccc(Cl)cc3)cc2)CC1` [Compound 116, (4-chlorophenyl)methyl N-{4-[2-(4-hydroxy-4-methylpiperidin-1-yl)-2-oxoethyl]phenyl}carbamate], for which the “AC1.4 Human” value turned out to be 0.95 µM and the 50% effective concentration (EC50) was 6.77 µM.

For `C[C@H](NC(=O)C1CCOCC1)c1ccc(NC(=O)OCc2ccc(Cl)cc2)cc1` [Compound 117, 4-chlorobenzyl (S)-(4-(1-(tetrahydro-2H-pyran-4-carboxamido)ethyl)phenyl)carbamate], the “AC1.4 Human” value was 0.95 µM and the EC50 came out at 8.14 µM.

On to `C[C@H](NC(=O)c1cccnc1)c1ccc(NC(=O)OCc2ccc(Cl)cc2)cc1` [Compound 118, (4-chlorophenyl)methyl N-{4-[(1S)-1-(pyridin-3-ylformamido)ethyl]phenyl}carbamate], for which the “AC1.4 Human” value was found to be 0.95 µM and the EC50 was 3.13 µM.

As to `O=C(Nc1ccc(CC(=O)N2CCC(O)CC2)cc1)OCc1ccc(Cl)cc1` [Compound 119, (4-chlorophenyl)methyl N-{4-[2-(4-hydroxypiperidin-1-yl)-2-oxoethyl]phenyl}carbamate], the “AC1.4 Human” value came out at 0.95 µM and the EC50 was determined as 21.7 µM.

In the case of `COC(=O)N1CCC(CCc2ccc(NC(=O)OCc3cnco3)cc2)CC1` [Compound 120, methyl 4-(4-(((oxazol-5-ylmethoxy)carbonyl)amino)phenethyl)piperidine-1-carboxylate], the “AC1.4 Human” value is 0.96 µM and the concentration for a half-maximal effect (EC50) worked out at 44.9 µM.

As to `C[C@H](NC(=O)C1COC1)c1ccc(NC(=O)OCc2ccc(Cl)cc2)cc1` [Compound 122, 4-chlorobenzyl (S)-(4-(1-(oxetane-3-carboxamido)ethyl)phenyl)carbamate], the “AC1.4 Human” value came to 0.97 µM and the 50% effective concentration (EC50) turned out to be 6.46 µM.

For `CC1(C)CCN(Cc2ccc(NC(=O)OCc3ccc(Cl)cc3)cc2)C1=O` [Compound 123, (4-chlorophenyl)methyl N-{4-[(3,3-dimethyl-2-oxopyrrolidin-1-yl)methyl]phenyl}carbamate], the “AC1.4 Human” value came out at 0.98 µM and the EC50 turned out to be 5.01 µM.

Turning to `CN1CCC(C(=O)NCc2ccc(NC(=O)OCc3ccc(Cl)cc3)cc2)CC1=O` (stereo not shown) [Compound 124, (4-chlorophenyl)methyl N-(4-{[(1-methyl-2-oxopiperidin-4-yl)formamido]methyl}phenyl)carbamate], the “AC1.4 Human” value stood at 0.98 µM and the EC50 was determined as 15.3 µM.

As for `Cc1nc(C)c(C(=O)N[C@@H](C)c2ccc(NC(=O)OCc3ccc(Cl)cc3)cc2)o1` [Compound 125, 4-chlorobenzyl (S)-(4-(1-(2,4-dimethyloxazole-5-carboxamido)ethyl)phenyl)carbamate], the “AC1.4 Human” value was found to be 0.98 µM and the half-maximal effective concentration (EC50) amounted to 6.02 µM.

Take `O=C(Nc1ccc(CNC(=O)c2ccncc2)cc1)OCc1ccc(Cl)cc1` [Compound 126, (4-chlorophenyl)methyl N-{4-[(pyridin-4-ylformamido)methyl]phenyl}carbamate]: the “AC1.4 Human” value came out at 0.99 µM and the 50% effective concentration (EC50) was found to be 4.06 µM.

`Cc1nn(C)c(C(=O)N(C)Cc2ccc(NC(=O)OCc3ccc(Cl)cc3)cc2)c1C` [Compound 127, (4-chlorophenyl)methyl N-(4-{[N-methyl-1-(2,4,5-trimethylpyrazol-3-yl)formamido]methyl}phenyl)carbamate]: the “AC1.4 Human” value was found to be 1.00 µM and the EC50 came out at 7.3 µM.

For the compound `CN(Cc1ccc(NC(=O)OCc2ccc(Cl)cc2)cc1)C(=O)N1CCCC1` [Compound 128, 4-chlorobenzyl (4-((N-methylpyrrolidine-1-carboxamido)methyl)phenyl)carbamate], the “AC1.4 Human” value turned out to be 1.03 µM and the 50% effective concentration (EC50) amounted to 4.75 µM.

On to `CC(C)Cn1nccc1C(=O)N[C@@H](C)c1ccc(NC(=O)OCc2ccc(Cl)cc2)cc1` [Compound 129, (4-chlorophenyl)methyl N-{4-[(1S)-1-{[2-(2-methylpropyl)pyrazol-3-yl]formamido}ethyl]phenyl}carbamate], for which the “AC1.4 Human” value was determined as 1.03 µM and the EC50 came to 2.22 µM.

Consider `CN(Cc1ccc(NC(=O)OCc2ccc(Cl)cc2)cc1)C(=O)c1cnco1` [Compound 130, (4-chlorophenyl)methyl N-(4-[(N-methyl-1-1,3-oxazol-5-ylformamido)methyl]phenyl}carbamate], for which the “AC1.4 Human” value came to 1.03 µM and the EC50 came to 8.13 µM.
